From patent US12648574B2 (priority 2019, dated 2026) come the findings set out here.

Assay [1] deals with Xylella fastidiosa subsp. fastidiosa strain 5387.2 in almond plants of the Avijor variety. The assay is classed as in vivo. To be noted: ampicillin 100 mg/L.
The test system of assay [2] is X. fastidiosa subsp. fastidiosa (IVIA strain 5387.2). It is filed as cell-based, Xylella fastidiosa subsp. fastidiosa. Particulars: ampicillin 100 mg/l.
For assay [3], the system named is Xylella fastidiosa subsp. multiplex IVIA 5901.2. It is filed as cell-based. To be noted: for mean survival: ampicillin 100 mg/L.
Assay [4] has as its system Xylella fastidiosa subsp. fastidiosa IVIA 5387.2. The assay is classed as cell-based. To be noted: for mean survival: streptomycin 100 mg/L.
Assay [5] deals with Xylella fastidiosa subsp. pauca DD1 CODiRo. The assay is classed as cell-based. Particulars: streptomycin 100 mg/L.
Assay [6] has as its system Erwinia amylovora EPS 101. It is filed as cell-based.
Assay [7] relates to EPS101 strain of E. amylovora in pear plants of the Conference variety. Set-up: species or system Erwinia amylovora. To be noted: in vivo.
In assay [8] the test system is 11 phytopathogenic strains. It is filed as cell-based.
For assay [9], the system named is Xanthomonas axonopodis pv. vesicatoria IVIA 2133.2. It is filed as cell-based.
For assay [10], the system named is Xanthomonas arboricola pv. pruni CFBP 5563. The assay is classed as cell-based.
The subject of assay [11] is Ralstonia solanacearum CECT 125. The assay is classed as cell-based. Particulars: streptomycin 100 mg/L.
In assay [12] the test system is Xanthomonas fragariae 349-9^a. It is filed as cell-based.
The test system of assay [13] is Pseudomonas syringae pv. syringae EPS 94. The assay is classed as cell-based.
For assay [14], the system named is Xanthomonas axonopodis pv. vesicatoria IVIA 2133.2. The assay is classed as cell-based. To be noted: 2 h.
The test system of assay [15] is Xanthomonas arboricola pv. pruni CFBP 5563. The assay is classed as cell-based. This is another data set of the same source.
For assay [16], the system named is X. fastidiosa subsp. pauca strain CoDiRO (DD1). The assay is classed as cell-based, Xylella fastidiosa subsp. pauca. Particulars: streptomycin 100 mg/L.
Assay [17] concerns Xylella fastidiosa subsp. fastidiosa IVIA 5387.2. It is filed as cell-based. Particulars: streptomycin 100 mg/L.
The subject of assay [18] is Erwinia amylovora EPS 101. The assay is classed as cell-based. The source holds these as a separate data set.
The test system of assay [19] is Xylella fastidiosa subsp. multiplex IVIA 5901.2. It is filed as cell-based. To be noted: streptomycin 100 mg/L.
The mark [20] stands for this setting: 31 days after application, qPCR of sap.

Read-outs that look alike come from different tables or passages of the source.

In the case of `CC1(C)S[C@@H]2[C@H](NC(=O)[C@H](N)c3ccccc3)C(=O)N2[C@H]1C(=O)O` [ampicillin], the “plants with decrease of viable bacteria at the inoculation point” value in assay [1] (18 h after application, 4 plants) is 25 % of the plants. Also, the “plants with upward and downward movement of Xylella fastidiosa” value in assay [1] (31 days after application) is given as 75 % of the plants. In assay [1] (setting [20]), the “plants with Xylella fastidiosa not detected in A1” value was 25 % of plants, the “plants with Xylella fastidiosa not detected in A2” value was 25 % of plants and the “plants with Xylella fastidiosa not detected in B” value was 25 % of plants. The “severity of infections with respect to untreated control” value in assay [1] (curative trunk microinjection, product 20 and 40 μl/ml, 31 days after application) is reported as “significantly reduced”. Besides, in assay [1] (product 20 μl/ml, 14 days after application), the “lower progression of Xylella fastidiosa by the vascular system (qPCR)” value is “not observed”. Further, the median survival in assay [2] (30 minutes) amounted to 100%. The molecule also yielded a survival in assay [2] (2 hours) of 20.6%. For the same molecule, the mean survival in assay [3] (30 minutes) came out at 2%. This molecule also registered a mean survival in assay [3] (120 minutes) of 4.4%. Also, in [4] (ampicillin 100 mg/L), the type of effect result is recorded as “bacteriostatic effect”. The survival entry in [4] (ampicillin 100 mg/L, 30 and 120 minutes, direct suspension or dilution −1) was “no survival”.
Turning to `[H]/N=C(/N)N[C@H]1[C@H](O)[C@@H](O)[C@H](O[C@@H]2O[C@@H](C)[C@](O)(C=O)[C@H]2O[C@@H]2O[C@@H](CO)[C@H](O)[C@@H](O)[C@@H]2NC)[C@@H](N/C(N)=N\[H])[C@@H]1O` [streptomycin], the bacterial growth entry in [5], in assay [6], in assay [9], in assay [10], in [11] and in assay [12] was “−” each time. Besides, the bacterial growth result in assay [13], in [17] and in assay [19] was “−” each time. Besides, in assay [7], the “severity of infections with respect to untreated control” value is listed as “significantly reduced”. In addition, the “growth of all pathogens tested” value in assay [8] is “inhibited the growth”. For the same molecule, the survival in assay [14] is 3.06; in assay [15] (2 hours), “no survival”; in assay [16] (30 minutes), 89.8%; in assay [16] (120 minutes), 61.7%; in assay [18], “significant reduction”. For the same molecule, the mean survival in assay [15] came to 0.01%; in [4] (30 minutes) it was 4.4%; in [4] (120 minutes), 20%. The “survival compared to the untreated control” value in [3] (streptomycin 100 mg/L) is “no significant differences”.
